# Patent publication US8637099B2, “Use of Vitex agnus castus extracts for preparing a medicament” (Max Zeller Sohne AG, priority 2007, dated 2014)
# Test system: Fisher rats
# Experiment: Tele-Stereo-EEG: field potentials (spectral power) in freely moving rats
# Format: in vivo, rat
# Details: 4 mg i.p.
smiles,measurement,value
"OC1(c2ccc(Cl)cc2)CCN(Cc2c[nH]c3ccccc23)CC1 [L-741,626]",changes in the EEG power spectrum,strong decrease of spectral power mainly within the alpha2 waves
